What was measured:
[1] = system: PolySeed® BOD Seed Inoculum (blend of broad spectrum bacteria); test: Durability test (bacteria spiked regularly on treated agar plate, swab viable count); format: cell-based; conditions: bacteria solution spiked every 60 minutes
Description: To evaluate the durability of bacteria inhibition of the exemplary compositions, durability test by regularly spiking a fixed amount of bacteria into the sample is performed and the procedures are incorporated herein by reference.
• Group A: Agar plate with 0.5 mL distilled water; • Group B: Agar plate with 0.5 mL 75% isopropyl alcohol (IPA); • Group C: Agar plate with 0.5 g of tested exemplary composition.
Bacteria strain used: PolySeed® BOD Seed Inoculum Capsules (1 caspsule dissolved into 500 mL Distilled Water) (Interlab), which contains a blend of broad spectrum bacteria designed specifically as a seed inoculum for the Biochemical Oxygen Demand (BOD 5) test as conducted in accordance to Standard Methods of the Examination of Water and Wastewater. PolySeed® is an EPA approved BOD 5 seed inoculum that has been used to seed both municipal and industrial wastes for almost 20 years.
Agar: Trypticase Soy Agar (TSA)
Incubation condition: 48 hours at 30±1° C.
The above three sample group agar plates are used as the sample matrices of different initial situation for spiking 0.5 ml bacteria solution for every 60 minutes, i.e.: there was an on-going process of spiking bacteria at time 0, 60, 120, 180, 240, 300 minutes;
A swab testing is carried out every 30 minutes from matrix samples of each group to test for the viable count of bacteria at the time interval.
• AM: 0.5 ml bacteria solution is added at T0-10 min; • Sample A1: To swab from AM at T0; Sample A2: To swab from AM at T1; • AM: 0.5 ml bacteria solution is added at T2-10 min; • Sample A3: To swab from AM at T2; Sample A4: To swab from AM at T3; • AM: 0.5 ml bacteria solution is added at T4-10 min; and so forth. Table 2 summarized the testing schedule for durability test.

[2] = system: PolySeed® BOD Seed Inoculum; test: Volatility test (duration of bacteria inhibition on treated agar plate); format: cell-based
Description: To study the duration on ability of bacteria inhibition of an exemplary composition, a volatility test is performed.
• Group A: Agar plate with 0.5 mL distilled water; • Group B: Agar plate with 0.5 mL 75% isopropyl alcohol (IPA); • Group C: Agar plate with 0.5 g of tested exemplary composition. Bacteria strain used: PolySeed® BOD Seed Inoculum Capsules (1 capsule dissolved into 500 mL Distilled Water) (Interlab) Agar: Trypticase Soy Agar (TSA) Incubation condition: 48 hours at 30±1° C. Testing Procedure 0.5 mL bacteria solution is add into the agar plate groups A, B and C at the time interval of Tx. as defined in Table 1.3.
After T10, bacteria solution is spiked to all the agar plates except agar blank.
Swab test is carried out to test for the viable count of bacteria at the time interval Tx.

CC(C)O [75% IPA, isopropyl alcohol]
CFU/plate ([1]; T0 (0 min)): 8 CFU/plate | CFU/plate ([1]; T1 (30 min)): 28 CFU/plate | CFU/plate ([1]; T2 (60 min)): 53 CFU/plate | CFU/plate ([1]; T3 (90 min)): 89 CFU/plate | CFU/plate ([1]; T4 (120 min)): 254 CFU/plate | CFU/plate ([1]; T5 (150 min)): 346 CFU/plate | CFU/plate ([1]; T6 (180 min)): Uncountable (the bacterial colonies are too numerous to be counted in the agar plate, e.g., more than 335 colonies per plate) | CFU/plate ([1]; T7 (210 min)): Uncountable (the bacterial colonies are too numerous to be counted in the agar plate, e.g., more than 335 colonies per plate) | CFU/plate ([1]; T8 (240 min)): Uncountable (the bacterial colonies are too numerous to be counted in the agar plate, e.g., more than 335 colonies per plate) | CFU/plate ([1]; T9 (270 min)): Uncountable (the bacterial colonies are too numerous to be counted in the agar plate, e.g., more than 335 colonies per plate) | CFU/plate ([1]; T10 (300 min)): Uncountable (the bacterial colonies are too numerous to be counted in the agar plate, e.g., more than 335 colonies per plate) | CFU/plate ([2]; T0 (0 min)): 54 CFU/plate | CFU/plate ([2]; T1 (30 min)): 62 CFU/plate | CFU/plate ([2]; T2 (60 min)): 50 CFU/plate | CFU/plate ([2]; T3 (90 min)): 45 CFU/plate | CFU/plate ([2]; T4 (120 min)): 49 CFU/plate | CFU/plate ([2]; T5 (150 min)): 55 CFU/plate | CFU/plate ([2]; T6 (180 min)): 43 CFU/plate | CFU/plate ([2]; T7 (210 min)): 37 CFU/plate | CFU/plate ([2]; T8 (240 min)): 44 CFU/plate | CFU/plate ([2]; T9 (270 min)): 49 CFU/plate | CFU/plate ([2]; T10 (300 min)): 0 CFU/plate

Reference: patent US12280018B2, “Antiseptic compositions” (RHT LIMITED, priority 2020, dated 2025)
